This is an account of results in patent US10308607B2, “Fucosidase inhibitors” (HORIZON ORPHAN LLC, priority 2015, dated 2019).

The target in one data set is rhFUCA1 (Homo sapiens (Human), UniProt P04066). The data set is described as follows: In vitro fucosidase inhibition (4MU-FUC fluorescence). It counts as biochemical. Conditions: 1 ng/mL rhFUCA1, 640 nM 4MU-FUC, pH 4.5, 37° C., 30 minutes. The protocol:
Fucosidase inhibition was assessed by preparing a reaction mixture of 50 mM phosphate-citrate pH 4.5, 5 mM MgCl2, 640 nM 4-methylumbelliferyl-alpha-L-fucopyranoside (4MU-FUC), 1 ng/mL rhFUCA1 (R&D Systems), and compound II, III, or IV:
Reactions (100 μL) were incubated at 37° C. for 30 minutes and then quenched with the same volume of 600 mM citrate-carbonate buffer, pH 9. Fluorescence was measured by excitation at 360 nm and emission at 450 nm.

The subject of data set [1] is HepG2 cells. In words: Metabolic labeling with tagged-fucose, flow cytometry. It is filed as cell-based, human. As to conditions: for Mean Green Fluorescence (GRN-HLog): HepG2, 24 hours compound then 48 hours fucose alkyne, Alexa Fluor 488 Azide; for Fold over vehicle: mean green fluorescence, HepG2. The protocol: Perturbations in glycoprotein metabolism were assayed by growing HepG2 cells without fucosidase inhibitors, or with compound II, III, or IV (see Example 2) for 24 hours, and then adding (3S,4R,5R,6S)-6-ethynyltetrahydro-2H-pyran-2,3,4,5-tetrayl tetra acetate, a per-acetylated analog of fucose containing an alkyne moiety in place of the 5′-methyl group (Click-iT™ Fucose Alkyne, Molecular Probes, Eugene, Oreg.) for an additional 48 hours. Cells were fixed, permeabilized, washed, and stained with Alexa Fluor 488 Azide to orthogonally label glycoproteins incorporating the fucose analog. Cells were then analyzed for fluorescence using a Guava 6HT-2L flow cytometer (ThermoFisher).
A general note: Flow cytometry measures light scatter and fluorescence of single cells or particles in a stream.

Data set [2] deals with HepG2 cells. In words: Cytotoxicity in HepG2 cells (XTT assay). It counts as cell-based, human. As to conditions: HepG2, 24 or 48 hours, compared to compound II. The protocol:
To assess the compounds' cytotoxicity in cells, HepG2 cells were seeded in triplicate in 96-well plates at 1.5e4 cells/well in Minimum Essential Media, 10% FBS and 2 mM L-glutamine. Plated cells were allowed to recover for 48 hours. Medium was then replaced with the same media containing dilutions of compound II or IV (see Example 2), incubated for 24 or 48 hours, and subjected to XTT assay to measure viability (ATCC).
In general terms: Tetrazolium assays rely on reduction of a dye to a coloured formazan, in cell work by metabolically active cells.

In the next data set the test system is fucosidase. Conditions: Li et al. 2008; cited from earlier work.

Each structure is given as a SMILES string.

A word on the IC50: it is the concentration at which inhibition is half-maximal.

rhFUCA1, sequence (P04066 32-466): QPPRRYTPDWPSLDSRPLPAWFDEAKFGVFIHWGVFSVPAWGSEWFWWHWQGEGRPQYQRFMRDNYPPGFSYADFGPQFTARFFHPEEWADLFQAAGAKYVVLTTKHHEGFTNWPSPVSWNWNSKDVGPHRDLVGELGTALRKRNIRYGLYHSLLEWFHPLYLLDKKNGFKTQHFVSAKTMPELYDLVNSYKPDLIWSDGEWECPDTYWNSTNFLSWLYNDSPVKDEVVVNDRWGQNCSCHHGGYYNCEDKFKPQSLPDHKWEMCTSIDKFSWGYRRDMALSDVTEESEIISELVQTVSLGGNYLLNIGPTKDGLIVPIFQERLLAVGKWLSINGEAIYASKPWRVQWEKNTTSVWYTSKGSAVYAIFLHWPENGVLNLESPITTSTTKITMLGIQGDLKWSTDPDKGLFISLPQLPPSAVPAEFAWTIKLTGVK

`O=C(NC[C@@H]1N[C@@H](CF)[C@@H](O)[C@@H](O)[C@@H]1O)c1cccc2c1C(=O)c1ccccc1-2` [Compound III] came in with an IC50 on rhFUCA1 of 59 nM. In the data set on HepG2 cells [1], the “Mean Green Fluorescence (GRN-HLog)” value is 1220 and the Fold over vehicle came to 0.43.

The compound `C[C@@H]1N/C(=C\C(=O)Nc2cccc3c2C(=O)c2ccccc2-3)[C@@H](O)[C@H](O)[C@@H]1O` [Compound IV] showed an IC50 on rhFUCA1 of 1500 nM. For the same compound, in the data set on HepG2 cells [2], the “cytotoxicity (XTT viability)” value is given as “reduced cytotoxicity at higher inhibitor concentrations compared to compound II”. In the data set on HepG2 cells [1], the “Mean Green Fluorescence (GRN-HLog)” value was determined as 12900 and the Fold over vehicle is 4.56.

Take `CCCCN1C[C@H](O)[C@@H](O)[C@H](O)[C@H](C(=O)O)C1` [Faz, (3R,4R,5S,6S)-1-butyl-4,5,6-trihydroxyazepane-3-carboxylic acid]: in the data set on fucosidase, the “potency of fucosidase inhibition” value is “low nanomolar range”.
